In publication PMC3813382 (The Journal of General Physiology, 2013):
Numbering of substitutions follows the chain as printed.

Assays:
WT Slo2.1 channels = target: T1, WT Slo2.1 channels (Homo sapiens, UniProt Q6UVM3); details: 1 mM NFA; ref Dai et al., 2010; cited from earlier work
T1 sequence (Q6UVM3 1-1135): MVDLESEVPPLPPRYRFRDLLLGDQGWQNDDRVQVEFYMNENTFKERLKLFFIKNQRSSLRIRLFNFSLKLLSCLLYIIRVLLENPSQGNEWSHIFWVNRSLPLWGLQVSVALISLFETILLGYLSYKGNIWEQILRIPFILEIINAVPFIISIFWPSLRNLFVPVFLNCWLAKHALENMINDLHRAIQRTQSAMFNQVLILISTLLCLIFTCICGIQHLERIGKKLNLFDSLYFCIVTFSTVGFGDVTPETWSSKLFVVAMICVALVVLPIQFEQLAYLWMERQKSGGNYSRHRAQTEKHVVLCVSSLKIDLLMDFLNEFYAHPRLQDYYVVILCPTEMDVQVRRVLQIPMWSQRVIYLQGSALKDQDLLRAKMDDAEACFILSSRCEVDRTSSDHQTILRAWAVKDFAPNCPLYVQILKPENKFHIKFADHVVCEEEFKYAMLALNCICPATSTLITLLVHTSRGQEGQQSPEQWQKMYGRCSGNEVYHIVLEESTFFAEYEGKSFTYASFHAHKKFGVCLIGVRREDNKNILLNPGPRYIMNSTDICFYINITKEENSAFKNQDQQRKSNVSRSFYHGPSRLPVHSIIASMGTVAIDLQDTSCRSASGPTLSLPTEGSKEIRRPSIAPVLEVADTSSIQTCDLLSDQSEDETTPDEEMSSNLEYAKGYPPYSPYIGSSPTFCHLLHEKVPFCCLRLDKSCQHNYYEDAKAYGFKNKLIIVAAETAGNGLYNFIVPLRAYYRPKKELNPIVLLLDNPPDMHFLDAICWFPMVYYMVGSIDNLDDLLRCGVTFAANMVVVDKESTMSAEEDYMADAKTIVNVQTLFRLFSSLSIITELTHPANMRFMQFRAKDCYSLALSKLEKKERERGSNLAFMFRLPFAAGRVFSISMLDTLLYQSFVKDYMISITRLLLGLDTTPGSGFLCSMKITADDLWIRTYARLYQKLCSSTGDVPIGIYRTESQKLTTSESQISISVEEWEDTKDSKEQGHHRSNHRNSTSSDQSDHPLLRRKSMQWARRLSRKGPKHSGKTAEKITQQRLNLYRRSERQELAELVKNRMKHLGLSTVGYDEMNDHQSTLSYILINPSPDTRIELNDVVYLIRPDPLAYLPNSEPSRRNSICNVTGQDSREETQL

E275D Slo2.1 channels = target: T2, E275D Slo2.1 channels (Homo sapiens, UniProt Q6UVM3, E275D); assay: Activation of ISlo2.1 by NFA, two-electrode voltage clamp in oocytes; assay type: cell-based
T2 sequence (Q6UVM3 1-1135 E275D): T1 sequence (Q6UVM3 1-1135) with E275D

EC50 (E275D Slo2.1 channels): 192 µM
Hill coefficient nH of NFA activation (E275D Slo2.1 channels; E275D): 1.08 ± 0.09
EC50 for E275D lower than EC50 for WT channels (E275D Slo2.1 channels; E275D vs WT): 11 fold
maximal increase in current at 0 mV (E275D Slo2.1 channels; E275D, 3 mM NFA (maximally effective concentration)): ~2.5 fold
SMILES: O=C(O)c1cccnc1Nc1cccc(C(F)(F)F)c1 [NFA, niflumic acid]
effective valence z (WT Slo2.1 channels): 0.48 e
midpoint of voltage dependence of channel activation (WT Slo2.1 channels): +95 mV
